Experimental data as given in patent US20170334899A1, “AMINO-SUBSTITUTED ISOTHIAZOLES” (Bayer Pharma Aktiengesellschaft, priority 2014, published 2017).

Key:
[1] = system: human cervical tumor cell line HeLa (ATCC CCL-2); assay: SAC-Formation - Nocodazole-Induced Assay; format: cell-based; conditions: Homo sapiens, HeLa, 24 h, HeLa cells, nocodazole 0.1 μg/ml together with test compound, decrease of mitotic cells (phospho-histone H3 Ser10)
Method in brief: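 HeLa cells, plated overnight, were treated 24 h at 37 °C with nocodazole (0.1 μg/ml final) plus test compound (0.005–20 μM, 0.5% DMSO) added at the same time. After fixation, anti-phospho-histone H3 Ser10 and Hoechst staining gave the mitotic cell fraction by imaging. Values came from four-parameter Hill fits.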

[2] = target: T1, CDK2/CycE (Homo sapiens, UniProt P24941); assay: CDK2/CycE kinase assay (TR-FRET); format: biochemical; conditions: avg, read-out: CDK2 avg (IC50 [mol/l])
T1 construct: GST; purchased ProQinase GmbH (Freiburg, Germany); host or cells: insect cells (Sf9)
Excerpt: CDK2/CycE -inhibitory activity of compounds of the present invention was quantified employing the CDK2/CycE TR-FRET assay as described in the following paragraphs.
Recombinant fusion proteins of GST and human CDK2 and of GST and human CycE, expressed in insect cells (Sf9) and purified by Glutathion-Sepharose affinity chromatography, were purchased from ProQinase GmbH (Freiburg, Germany). As substrate for the kinase reaction biotinylated peptide biotin-Ttds-YISPLKSPYKISEG (C-terminus in amid form) was used which can be purchased e.g. form the company JERINI peptide technologies (Berlin, Germany).
For the assay 50 nl of a 100fold concentrated solution of the test compound in DMSO was pipetted into a black low volume 384we11 microtiter plate (Greiner Bio-One, Frickenhausen, Germany), 2 μl of a solution of CDK2/CycE in aqueous assay buffer [50 mM Tris/HCl pH 8.0, 10 mM MgCl2, 1.0 mM dithiothreitol, 0.1 mM sodium ortho-vanadate, 0.01% (v/v) Nonidet-P40 (Sigma)] were added and the mixture was incubated for 15 min at 22° C. to allow pre-binding of the test compounds to the enzyme before the start of the kinase reaction. Then the kinase reaction was started by the addition of 3 μl of a solution of adenosine-tri-phosphate (ATP, 16.7 μM=>final conc. in the 5 μl assay volume is 10 μM) and substrate (1.25 μM=>final conc. in the 5 μl assay volume is 0.75 μM) in assay buffer and the resulting mixture was incubated for a reaction time of 25 min at 22° C. The concentration of CDK2/CycE was adjusted depending of the activity of the enzyme lot and was chosen appropriate to have the assay in the linear range, typical concentrations were in the range of 130 ng/ml. The reaction was stopped by the addition of 5 μl of a solution of TR-FRET detection reagents (0.2 μM streptavidine-XL665 [Cisbio Bioassays, Codolet, France] and 1 nM anti-RB(pSer807/pSer811)-antibody from BD Pharmingen [#558389] and 1.2 nM LANCE EU-W1024 labeled anti-mouse IgG antibody [Perkin-Elmer, product no. AD0077, as an alternative a Terbium-cryptate-labeled anti-mouse IgG antibody from Cisbio Bioassays can be used]) in an aqueous EDTA-solution (100 mM EDTA, 0.2% (w/v) bovine serum albumin in 100 mM HEPES/NaOH pH 7.0).
The resulting mixture was incubated 1 h at 22° C. to allow the formation of complex between the phosphorylated biotinylated peptide and the detection reagents. Subsequently the amount of phosphorylated substrate was evaluated by measurement of the resonance energy transfer from the Eu-chelate to the streptavidine-XL. Therefore, the fluorescence emissions at 620 nm and 665 nm after excitation at 350 nm was measured in a TR-FRET reader, e.g. a Rubystar (BMG Labtechnologies, Offenburg, Germany) or a Viewlux (Perkin-Elmer). The ratio of the emissions at 665 nm and at […] was taken as the measure for the amount of phosphorylated substrate. The data were normalised (enzyme reaction without inhibitor=0% inhibition, all other assay components but no enzyme=100% inhibition).

SMILES: Cc1nsc(Nc2cnc(C(F)(F)F)cn2)c1C(=O)Nc1ccc(O[C@@H]2CCN(CCC(F)(F)F)C[C@@H]2F)nc1 [Example 139, N-(6-{[(3S,4R)-3-fluoro-1-(3,3,3-trifluoropropyl)piperidin-4-yl]oxy}pyridin-3-yl)-3-methyl-5-{[5-(trifluoromethyl)pyrazin-2-yl]amino}-1,2-thiazole-4-carboxamide]
- IC50 [1]: 0.016 µM
- IC50 [2]: > 20 µM

SMILES: CCCN1CC[C@@H](Oc2ccc(NC(=O)c3c(C)nsc3Nc3cnc(C(F)(F)F)cn3)cn2)[C@@H](F)C1 [Example 140, N-(6-{[(3S,4R)-3-fluoro-1-propylpiperidin-4-yl]oxy}pyridin-3-yl)-3-methyl-5-{[5-(trifluoromethyl)pyrazin-2-yl]amino}-1,2-thiazole-4-carboxamide]
- IC50 [1]: 0.06 µM
- IC50 [2]: > 20 µM

SMILES: CCCCN1CC[C@@H](Oc2ccc(NC(=O)c3c(C)nsc3Nc3cnc(C(F)(F)F)cn3)cn2)[C@@H](F)C1 [Example 141, N-(6-{[(3S,4R)-1-butyl-3-fluoropiperidin-4-yl]oxy}pyridin-3-yl)-3-methyl-5-{[5-(trifluoromethyl)pyrazin-2-yl]amino}-1,2-thiazole-4-carboxamide]
- IC50 [1]: 0.036 µM
- IC50 [2]: > 20 µM

SMILES: Cc1nsc(Nc2cnc(C(F)(F)F)cn2)c1C(=O)Nc1ccc(O[C@H]2CCN(CC(F)F)C[C@H]2F)nc1 [Example 144, N-(6-{[(3R,4S)-1-(2,2-difluoroethyl)-3-fluoropiperidin-4-yl]oxy}pyridin-3-yl)-3-methyl-5-{[5-(trifluoromethyl)pyrazin-2-yl]amino}-1,2-thiazole-4-carboxamide]
- IC50 [1]: 0.036 µM
- IC50 [2]: > 20 µM

SMILES: Cc1nsc(Nc2cnc(C(F)(F)F)cn2)c1C(=O)Nc1ccc(O[C@H]2CCN(CC(F)(F)F)C[C@H]2F)nc1 [Example 145, N-(6-{[(3R,4S)-3-fluoro-1-(2,2,2-trifluoroethyl)piperidin-4-yl]oxy}pyridin-3-yl)-3-methyl-5-{[5-(trifluoromethyl)pyrazin-2-yl]amino}-1,2-thiazole-4-carboxamide]
- IC50 [1]: 0.013 µM
- IC50 [2]: > 20 µM

SMILES: Cc1nsc(Nc2cnc(C(F)(F)F)cn2)c1C(=O)Nc1ccc(O[C@H]2CCN(CCC(F)(F)F)C[C@H]2F)nc1 [Example 146, N-(6-{[(3R,4S)-3-fluoro-1-(3,3,3-trifluoropropyl)piperidin-4-yl]oxy}pyridin-3-yl)-3-methyl-5-{[5-(trifluoromethyl)pyrazin-2-yl]amino}-1,2-thiazole-4-carboxamide]
- IC50 [1]: 0.063 µM
- IC50 [2]: > 20 µM

SMILES: CCCN1CC[C@H](Oc2ccc(NC(=O)c3c(C)nsc3Nc3cnc(C(F)(F)F)cn3)cn2)[C@H](F)C1 [Example 147, N-(6-{[(3R,4S)-3-fluoro-1-propylpiperidin-4-yl]oxy}pyridin-3-yl)-3-methyl-5-{[5-(trifluoromethyl)pyrazin-2-yl]amino}-1,2-thiazole-4-carboxamide]
- IC50 [1]: 0.0059 µM
- IC50 [2]: > 20 µM

SMILES: CCCCN1CC[C@H](Oc2ccc(NC(=O)c3c(C)nsc3Nc3cnc(C(F)(F)F)cn3)cn2)[C@H](F)C1 [Example 148, N-(6-{[(3R,4S)-1-butyl-3-fluoropiperidin-4-yl]oxy}pyridin-3-yl)-3-methyl-5-{[5-(trifluoromethyl)pyrazin-2-yl]amino}-1,2-thiazole-4-carboxamide]
- IC50 [1]: 0.21 µM
- IC50 [2]: > 20 µM

SMILES: Cc1nsc(Nc2cnc3cc(F)ccc3n2)c1C(=O)Nc1ccc(S(N)(=O)=O)cc1 [Example 149, 5-[(6-fluoroquinoxalin-2-yl)amino]-3-methyl-N-(4-sulfamoylphenyl)-1,2-thiazole-4-carboxamide]
- IC50 [1]: 0.47 µM
- IC50 [2]: > 20 µM

SMILES: Cc1nsc(Nc2ccc(C#N)cn2)c1C(=O)Nc1cccc(S(C)(=O)=O)c1 [Example 150, 5-[(5-cyanopyridin-2-yl)amino]-3-methyl-N-[3-(methylsulfonyl)phenyl]-1,2-thiazole-4-carboxamide]
- IC50 [1]: 0.16 µM
- IC50 [2]: > 20 µM

SMILES: Cc1nsc(Nc2cnc(C(F)(F)F)cn2)c1C(=O)Nc1ccc(F)c(C(N)=O)c1 [Example 151, N-(3-carbamoyl-4-fluorophenyl)-3-methyl-5-{[5-(trifluoromethyl)pyrazin-2-yl]amino}-1,2-thiazole-4-carboxamide]
- IC50 [1]: 0.29 µM
- IC50 [2]: > 20 µM

SMILES: CC(=O)Nc1cc(NC(=O)c2c(C)nsc2Nc2ccc(C#N)cn2)ccc1F [Example 152, N-(3-acetamido-4-fluorophenyl)-5-[(5-cyanopyridin-2-yl)amino]-3-methyl-1,2-thiazole-4-carboxamide]
- IC50 [1]: 8.4 µM
- IC50 [2]: > 20 µM

SMILES: Cc1nsc(Nc2cnc(C(F)(F)F)cn2)c1C(=O)Nc1ccc(C(=O)NCCN2CCCC(F)(F)C2)cc1 [Example 153, N-(4-{[2-(3,3-difluoropiperidin-1-yl)ethyl]carbamoyl}phenyl)-3-methyl-5-{[5-(trifluoromethyl)pyrazin-2-yl]amino}-1,2-thiazole-4-carboxamide]
- IC50 [1]: 0.065 µM
- IC50 [2]: > 20 µM

SMILES: Cc1nsc(Nc2cnc(C(F)(F)F)cn2)c1C(=O)Nc1ccc(C(=O)N2CCN(CC(F)F)CC2)cc1 [Example 154, N-(4-{[4-(2,2-difluoroethyl)piperazin-1-yl]carbonyl}phenyl)-3-methyl-5-{[5-(trifluoromethyl)pyrazin-2-yl]amino}-1,2-thiazole-4-carboxamide]
- IC50 [1]: 0.71 µM
- IC50 [2]: > 20 µM

SMILES: Cc1nsc(Nc2cncc(C(F)(F)F)n2)c1C(=O)Nc1ccc(C(=O)NCCN2CCCC(F)C2)cc1 (stereo not drawn) [Example 155, N-(4-{[2-(3-fluoropiperidin-1-yl)ethyl]carbamoyl}phenyl)-3-methyl-5-{[6-(trifluoromethyl)pyrazin-2-yl]amino}-1,2-thiazole-4-carboxamide]
- IC50 [1]: 1.7 µM
- IC50 [2]: 4.1 µM

SMILES: Cc1nsc(Nc2cnc3ccccc3n2)c1C(=O)Nc1ccc(C(=O)NCCN2CCCC(F)(F)C2)cc1 [Example 156, N-(4-{[2-(3,3-difluoropiperidin-1-yl)ethyl]carbamoyl}phenyl)-3-methyl-5-(quinoxalin-2-ylamino)-1,2-thiazole-4-carboxamide]
- IC50 [1]: 2.1 µM
- IC50 [2]: > 20 µM

SMILES: Cc1nsc(Nc2cnc3ccccc3n2)c1C(=O)Nc1ccc(C(=O)N2CCN(CC(F)F)CC2)cc1 [Example 157, N-(4-{[4-(2,2-difluoroethyl)piperazin-1-yl]carbonyl}phenyl)-3-methyl-5-(quinoxalin-2-ylamino)-1,2-thiazole-4-carboxamide]
- IC50 [1]: 1.7 µM
- IC50 [2]: > 20 µM

SMILES: Cc1nsc(Nc2cnc3ccccc3n2)c1C(=O)Nc1ccc(C(=O)NC2CN(C(=O)OC(C)(C)C)CC(F)(F)C2)cc1 (stereo not drawn) [Example 158, tert-butyl 3,3-difluoro-5-{[4-({[3-methyl-5-(quinoxalin-2-ylamino)-1,2-thiazol-4-yl]carbonyl}amino)benzoyl]amino} piperidine-1-carboxylate]
- IC50 [1]: 0.24 µM
- IC50 [2]: > 20 µM

SMILES: Cc1nsc(Nc2cnc3ccccc3n2)c1C(=O)Nc1ccc(C(=O)N2CCCN(CC(F)(F)F)CC2)cc1 [Example 159]
- IC50 [1]: 1.5 µM
- IC50 [2]: > 20 µM

SMILES: Cc1nsc(Nc2cnc(C(F)(F)F)cn2)c1C(=O)Nc1ccc(OC2CCN(C(C)C)CC2)nc1 [Example 160, N-{6-[(1-isopropylpiperidin-4-yl)oxy]pyridin-3-yl}-3-methyl-5-{[5-(trifluoromethyl)pyrazin-2-yl]amino}-1,2-thiazole-4-carboxamide]
- IC50 [1]: 2 µM
- IC50 [2]: > 20 µM

SMILES: Cc1nsc(Nc2cnc(C(F)(F)F)cn2)c1C(=O)Nc1ccc(OC2CCN(CCF)CC2)c(F)c1 [Example 162, N-(3-fluoro-4-{[1-(2-fluoroethyl)piperidin-4-yl]oxy}phenyl)-3-methyl-5-{[5-(trifluoromethyl)pyrazin-2-yl]amino}-1,2-thiazole-4-carboxamide]
- IC50 [1]: 0.16 µM
- IC50 [2]: > 20 µM
